Each block holds one molecule with its values, some of them ahead of it.
Experiments:
[1] = Permeability of the compound at 10 uM by PAMPA-BBB assay in presence of mixture of porcine brain lipids dodecane; type: ADME; conditions: pig
[2] = Metabolic stability in mouse plasma assessed as compound remaining measured at 10 uM after 3 hrs by LC-MS/MS analysis; type: ADME, cell-free; conditions: read-out: Stability
[3] = Intrinsic clearance in male mouse liver microsomes at 1 uM by UPLC/TOF-MS analysis; type: ADME; conditions: read-out: CLH
[4] = Ratio of drug level in brain to plasma in CD1 mouse at 5 mg/kg, po; type: ADME, organism-based; design: dose 5 mg/kg, route oral; conditions: read-out: BPR
[5] = Half life in SCID mouse at 300 mg/kg, po qd for 1 to 3 days; type: ADME, organism-based; design: dose 300 mg/kg, route oral; conditions: in vivo
[6] = Toxicity in human NCI-N87 cells xenografted po dosed SCID mouse qd for 14 days; type: organism-based; conditions: in vivo
[7] = Tmax in SCID mouse at 100 mg/kg, po qd for 14 days; type: ADME, organism-based; design: dose 100 mg/kg, route oral; conditions: in vivo
Mus musculus [8] = assay: Volume of distribution at steady state in CD1 mouse at 5 mg/kg, po; type: ADME, organism-based; design: dose 5 mg/kg, route oral; conditions: in vivo
[9] = Tmax in SCID mouse at 300 mg/kg, po qd for 1 to 3 days; type: ADME, organism-based; design: dose 300 mg/kg, route oral; conditions: in vivo
[10] = Half life in SCID mouse at 100 mg/kg, po qd for 1 to 7 days and 14 to 21 days; type: ADME, organism-based; design: dose 100 mg/kg, route oral; conditions: in vivo
[11] = Cmax in CD1 mouse at 5 mg/kg, po; type: ADME, organism-based; design: dose 5 mg/kg, route oral; conditions: in vivo
[12] = Cmax in SCID mouse at 300 mg/kg, po qd for 1 to 3 days; type: ADME, organism-based; design: dose 300 mg/kg, route oral; conditions: in vivo
[13] = Cmax in SCID mouse at 100 mg/kg, po qd for 14 days; type: ADME, organism-based; design: dose 100 mg/kg, route oral; conditions: in vivo
[14] = AUC in SCID mouse at 100 mg/kg, po qd for 1 to 7 days and 14 to 21 days; type: ADME, organism-based; design: dose 100 mg/kg, route oral; conditions: plasma
[15] = Cmax in SCID mouse at 100 mg/kg, po qd for 1 to 7 days and 14 to 21 days; type: ADME, organism-based; design: dose 100 mg/kg, route oral; conditions: in vivo
[16] = Oral bioavailability in CD1 mouse at 5 mg/kg; type: ADME, organism-based; conditions: in vivo
Mus musculus [17] = assay: AUC (0 to infinity) in CD1 mouse at 5 mg/kg, po; type: ADME, organism-based, Plasma; design: time infinity, dose 5 mg/kg, route oral; conditions: in vivo
[18] = Half life in SCID mouse at 100 mg/kg, po qd for 14 days; type: ADME, organism-based; design: dose 100 mg/kg, route oral; conditions: in vivo
[19] = AUC in SCID mouse at 100 mg/kg, po qd for 14 days; type: ADME, organism-based; design: dose 100 mg/kg, route oral; conditions: plasma
[20] = Half life in CD1 mouse at 5 mg/kg, po; type: ADME, organism-based; design: dose 5 mg/kg, route oral; conditions: in vivo
MDR1 = assay: Apparent permeability from apical to basolateral side in MDCK cells expressing human MDR1 at 10 uM after 120 mins by UPLC/TOF-MS analysis; type: ADME, cell-based, Canis lupus familiaris; conditions: dog, read-out: permeability
[21] = Tmax in SCID mouse at 100 mg/kg, po qd for 1 to 7 days and 14 to 21 days; type: ADME, organism-based; design: dose 100 mg/kg, route oral; conditions: in vivo
[22] = AUC in SCID mouse at 300 mg/kg, po qd for 1 to 3 days; type: ADME, organism-based; design: dose 300 mg/kg, route oral; conditions: plasma

permeability [1]: impermeable
SMILES: COc1ccccc1N1CCN(C(=O)[C@H]2CC[C@H](Cn3c(=O)[nH]c4ccccc4c3=O)CC2)CC1

permeability [1]: permeable
SMILES: O=c1[nH]c2ccccc2c(=O)n1C[C@H]1CC[C@H](C(=O)N2CCN(CC3CC3)CC2)CC1

permeability [1]: permeable
SMILES: CC(C)CN1CCN(C(=O)[C@H]2CC[C@H](Cn3c(=O)[nH]c4ccccc4c3=O)CC2)CC1

permeability [1]: permeable
SMILES: CC(=O)N1CCN(C(=O)[C@H]2CC[C@H](Cn3c(=O)[nH]c4ccccc4c3=O)CC2)CC1

permeability [1]: permeable
SMILES: COCC(=O)N1CCN(C(=O)[C@H]2CC[C@H](Cn3c(=O)[nH]c4ccccc4c3=O)CC2)CC1

permeability [1]: permeable
SMILES: CC(C)C(=O)N1CCN(C(=O)[C@H]2CC[C@H](Cn3c(=O)[nH]c4ccccc4c3=O)CC2)CC1

permeability [1]: permeable
SMILES: O=C(C1CC1)N1CCN(C(=O)[C@H]2CC[C@H](Cn3c(=O)[nH]c4ccccc4c3=O)CC2)CC1

permeability [1]: permeable
SMILES: O=C(c1ccno1)N1CCN(C(=O)[C@H]2CC[C@H](Cn3c(=O)[nH]c4ccccc4c3=O)CC2)CC1

permeability [1]: permeable
SMILES: O=C(C1CCC1)N1CCN(C(=O)[C@H]2CC[C@H](Cn3c(=O)[nH]c4ccccc4c3=O)CC2)CC1

permeability [1]: permeable
SMILES: COc1ccc2[nH]c(=O)n(C[C@H]3CC[C@H](C(=O)N4CCN(C(=O)C(C)C)CC4)CC3)c(=O)c2c1

permeability [1]: permeable
SMILES: CC(C)C(=O)N1CCN(C(=O)[C@H]2CC[C@H](Cn3c(=O)[nH]c4cc(Cl)ccc4c3=O)CC2)CC1

remaining at 3 h, 10 µM [2]: 78% | microsomal CLint at 1 µM [3]: 65.6 µL/min/mg | permeability [1]: permeable
SMILES: COc1ccc2[nH]c(=O)n(C[C@H]3CC[C@H](C(=O)N4CCN(C(=O)C5CC5)CC4)CC3)c(=O)c2c1

remaining at 3 h, 10 µM [2]: 74% | microsomal CLint at 1 µM [3]: 14.5 µL/min/mg | permeability [1]: permeable
SMILES: COCC(=O)N1CCN(C(=O)[C@H]2CC[C@H](Cn3c(=O)[nH]c4ccc(OC)cc4c3=O)CC2)CC1

remaining at 3 h, 10 µM [2]: 100% | microsomal CLint at 1 µM [3]: 41.2 µL/min/mg | permeability [1]: permeable
SMILES: COc1ccc2[nH]c(=O)n(C[C@H]3CC[C@H](C(=O)N4CCN(C(C)=O)CC4)CC3)c(=O)c2c1

More lines, now with the values behind:

SMILES: O=c1[nH]c2ccccc2c(=O)n1C[C@H]1CC[C@H](C(=O)N2CCN(c3ncccn3)CC2)CC1
permeability [1]: permeable

SMILES: O=c1[nH]c2ccccc2c(=O)n1C[C@H]1CC[C@H](C(=O)N2CCN(c3cnccn3)CC2)CC1
permeability [1]: permeable

SMILES: O=c1[nH]c2ccccc2c(=O)n1C[C@H]1CC[C@H](C(=O)N2CCN(Cc3ccccc3)CC2)CC1
permeability [1]: impermeable

SMILES: COc1cccc2[nH]c(=O)n(C[C@H]3CC[C@H](C(=O)N4CCN(C(=O)C(C)C)CC4)CC3)c(=O)c12
permeability [1]: permeable

SMILES: CC(C)C(=O)N1CCN(C(=O)[C@H]2CC[C@H](Cn3c(=O)[nH]c4cccc(Cl)c4c3=O)CC2)CC1
permeability [1]: permeable

SMILES: CC(C)C(=O)N1CCN(C(=O)[C@H]2CC[C@H](Cn3c(=O)[nH]c4cccc(F)c4c3=O)CC2)CC1
permeability [1]: permeable

SMILES: Cc1ccc2[nH]c(=O)n(C[C@H]3CC[C@H](C(=O)N4CCN(C(=O)C(C)C)CC4)CC3)c(=O)c2c1
permeability [1]: permeable

SMILES: Cc1cccc2c(=O)n(C[C@H]3CC[C@H](C(=O)N4CCN(C(=O)C(C)C)CC4)CC3)c(=O)[nH]c12
permeability [1]: permeable

SMILES: COc1ccc2c(c1)c(=O)n(C[C@H]1CC[C@H](C(=O)N3CCN(C(=O)C4CC4)CC3)CC1)c(=O)n2C
remaining at 3 h, 10 µM [2]: 98% | microsomal CLint at 1 µM [3]: 139 µL/min/mg | permeability [1]: permeable

SMILES: COCC(=O)N1CCN(C(=O)[C@H]2CC[C@H](Cn3c(=O)c4cc(OC)ccc4n(C)c3=O)CC2)CC1
Kp [4]: 0.03 | half-life [5]: 5.4 h | remaining at 3 h, 10 µM [2]: 95% | MTD at 336 h [6]: 250 mg/kg | Tmax [7]: 0.5 h | Vdss (Mus musculus [8]): 0.83 L/kg | Tmax [9]: 1 h | half-life [10]: 1.6 h | Cmax [11]: 1.3 µM | Cmax [12]: 35 µM | Cmax [13]: 27 µM | microsomal CLint at 1 µM [3]: 23 µL/min/mg | AUC [14]: 101 µM·h | Cmax [15]: 22 µM | bioavailability [16]: 42% | AUC (Mus musculus [17]): 4.9 µM·h | half-life [18]: 2.2 h | AUC at 336 h [19]: 113 µM·h | half-life [20]: 2.2 h | Papp A→B at 2 h, 10 µM (MDR1): 13 nm/s | permeability [1]: permeable | Tmax [21]: 0.5 h | AUC [22]: 193 µM·h

SMILES: COc1ccc2c(c1)c(=O)n(C[C@H]1CC[C@H](C(=O)N3CCN(C(C)=O)CC3)CC1)c(=O)n2C
remaining at 3 h, 10 µM [2]: 100% | microsomal CLint at 1 µM [3]: 33.3 µL/min/mg | permeability [1]: permeable

From ChEMBL document CHEMBL3421631, “Structure-activity relationship and properties optimization of a series of quinazoline-2,4-diones as inhibitors of the canonical Wnt pathway” (Eur J Med Chem, 2015)
